Laboratory results reported in the NIST ThermoML archive (doi:10.1021/je050402s).

Assay: xn = mol fraction of the nth substance listed
Details: 100.5 kPa, Liquid; for viscosity: Capillary tube (Ostwald / Ubbelohde) method

CCOC(=O)CC(C)C [ethyl 3-methylbutanoate] + CCO
Details	mass density, 288.15 K [kg/m3]	mass density, 298.15 K [kg/m3]	mass density, 308.15 K [kg/m3]	mass density, 318.15 K [kg/m3]	viscosity, 288.15 K [mPa·s]	viscosity, 298.15 K [mPa·s]	viscosity, 308.15 K [mPa·s]	viscosity, 318.15 K [mPa·s]
x1 = 0.05	802.64	793.85	784.95	775.9	1.229	1.02	0.852	0.715
x1 = 0.1	810.36	801.39	792.29	783.04	1.125	0.945	0.793	0.668
x1 = 0.15	817.13	807.99	798.73	789.31	1.057	0.891	0.75	0.638
x1 = 0.2	823.05	813.77	804.39	794.81	1.002	0.848	0.718	0.618
x1 = 0.25	828.3	818.9	809.39	799.73	0.966	0.815	0.695	0.6
x1 = 0.3	833.01	823.53	813.92	804.15	0.935	0.791	0.677	0.587
x1 = 0.35	837.23	827.65	817.96	808.12	0.908	0.771	0.663	0.579
x1 = 0.4	841.07	831.42	821.66	811.75	0.886	0.754	0.653	0.571
x1 = 0.45	844.57	834.87	825.05	815.07	0.867	0.742	0.645	0.565
x1 = 0.5	847.78	838.02	828.15	818.12	0.855	0.733	0.638	0.559
x1 = 0.55	850.72	840.93	831.01	820.95	0.847	0.724	0.631	0.554
x1 = 0.6	853.42	843.59	833.64	823.56	0.84	0.719	0.624	0.55
x1 = 0.65	855.93	846.06	836.09	826	0.835	0.713	0.62	0.548
x1 = 0.7	858.27	848.38	838.38	828.28	0.83	0.713	0.618	0.547
x1 = 0.75	860.46	850.55	840.55	830.44	0.827	0.714	0.619	0.546
x1 = 0.8	862.52	852.6	842.6	832.48	0.83	0.716	0.621	0.549
x1 = 0.85	864.44	854.52	844.51	834.44	0.833	0.722	0.625	0.552
x1 = 0.9	866.27	856.34	846.34	836.27	0.839	0.727	0.631	0.556
x1 = 0.95	868.03	858.12	848.15	838.1	0.845	0.729	0.634	0.56
x1 = 1	869.66	859.78	849.83	839.81	0.853	0.739	0.642	0.566
